Measured values published in ChEMBL document CHEMBL1137564, “Substituted 2-pyrrolinone inhibitors of HIV-1 integrase” (Bioorg Med Chem Lett, 2007).

Columns and labels:
[1] = target: T1, Human immunodeficiency virus type 1 integrase (Human immunodeficiency virus 1, UniProt Q7ZJM1); assay: Inhibition of HIV1 integrase 3'-end processing activity
[2] = target: T1, Human immunodeficiency virus type 1 integrase; assay: Inhibition of HIV1 integrase strand transfer activity
[3] = target: T1, Human immunodeficiency virus type 1 integrase; assay: Inhibition of HIV1 integrase strand transfer activity in presence of Mg2+
[4] = target: T1, Human immunodeficiency virus type 1 integrase; assay: Inhibition of HIV1 integrase 3'-end processing activity in presence of Mg2+
[5] = target: Human immunodeficiency virus type 1 integrase (Human immunodeficiency virus 1) (UniProt Q7ZJM1); assay: Selectivity for HIV1 integrase strand transfer activity over 3'-end processing activity in presence of Mg2+
Chain of Human immunodeficiency virus type 1 integrase (Human immunodeficiency virus 1) (Q7ZJM1 as listed by the source): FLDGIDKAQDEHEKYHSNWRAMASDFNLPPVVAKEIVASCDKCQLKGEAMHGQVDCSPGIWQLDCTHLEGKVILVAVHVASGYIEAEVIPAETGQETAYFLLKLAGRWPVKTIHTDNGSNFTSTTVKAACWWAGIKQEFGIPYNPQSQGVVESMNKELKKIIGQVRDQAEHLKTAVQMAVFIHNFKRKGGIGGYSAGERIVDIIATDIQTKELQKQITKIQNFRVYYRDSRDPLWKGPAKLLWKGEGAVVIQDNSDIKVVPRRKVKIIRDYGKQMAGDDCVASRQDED

T1 sequence (Q7ZJM1 whole entry): as the sequence (Q7ZJM1 as listed by the source) above

SMILES | IC50 [1] [µM] | IC50 [2] [µM] | IC50 [3] [µM] | IC50 [4] [µM] | Ratio IC50 [5]
Cc1ccc(C(=O)C2=C(O)C(=O)N(CCCn3ccnc3)C2c2ccc(Cl)cc2)cc1 (stereo unspecified) | 93 | 67 | – | – | –
Cc1ccc(C(=O)C2=C(O)C(=O)N(c3nccs3)C2c2ccc(Cl)cc2)cc1 (stereo unspecified) | 56 | 39 | – | – | –
COc1ccc(C(=O)C2=C(O)C(=O)N(CCc3ccccc3)C2c2ccc(Br)cc2)cc1OC (stereo unspecified) | 60 | 42 | – | – | –
CCOc1ccc(C(=O)C2=C(O)C(=O)N(c3nnc(C)s3)C2c2ccc(F)cc2)cc1 (stereo unspecified) | > 100 | > 100 | – | – | –
Cc1ccc(C(=O)C2=C(O)C(=O)N(c3ncc(S(=O)(=O)c4ccc([N+](=O)[O-])cc4)s3)C2c2cccc(Cl)c2)cc1 (stereo unspecified) | 27 | 8 | 6.1 | > 100 | –
CCOc1ccc(C(=O)C2=C(O)C(=O)N(c3nccs3)C2c2ccc(OC)cc2)cc1 (stereo unspecified) | > 100 | 90 | – | – | –
O=C(C1=C(O)C(=O)N(c2nc3ccccc3s2)C1c1ccccn1)c1ccc(Cl)cc1 (stereo unspecified) | > 100 | 83 | – | – | –
O=C(C1=C(O)C(=O)N(c2nc3ccccc3s2)C1c1cccnc1)c1ccc(Cl)cc1 (stereo unspecified) | > 100 | 90 | – | – | –
O=C(C1=C(O)C(=O)N(c2nc3ccccc3s2)C1c1ccc2c(c1)OCO2)c1ccccc1 (stereo unspecified) | 57 | 21 | – | – | –
CCOC(=O)c1sc(N2C(=O)C(O)=C(C(=O)c3ccc(C)cc3)C2c2ccc(F)cc2)nc1C (stereo unspecified) | > 100 | 33 | – | – | –
Cc1ccc(C2C(C(=O)c3ccc(Cl)cc3)=C(O)C(=O)N2CC(=O)O)cc1 (stereo unspecified) | 84 | 69 | – | – | –
CCOC(=O)c1sc(N2C(=O)C(O)=C(C(=O)c3ccccc3)C2c2ccc(F)cc2)nc1C (stereo unspecified) | 44 | 21 | – | – | –
Cc1ccc(C(=O)C2=C(O)C(=O)N(c3nccs3)C2c2ccc(F)cc2)cc1 (stereo unspecified) | > 100 | 78 | – | – | –
COc1ccc(C2C(C(=O)c3ccc(Br)cc3)=C(O)C(=O)N2c2cc(C(C)(C)C)on2)cc1OC (stereo unspecified) | 45 | 43 | – | – | –
COc1ccc(OC)c(C(=O)C2=C(O)C(=O)N(CCCCCC(=O)O)C2c2ccc(Cl)cc2)c1 (stereo unspecified) | 88 | 40 | 10 | > 100 | > 10
CCOc1ccc(C(=O)C2=C(O)C(=O)N(c3nccs3)C2c2ccc(O)c(OC)c2)cc1 (stereo unspecified) | 57 | 30 | – | – | –
CC(C)(C)c1ccc(C2C(C(=O)c3ccc(F)cc3)=C(O)C(=O)N2c2nncs2)cc1 (stereo unspecified) | 64 | 43 | – | – | –
COc1ccc(C2C(C(=O)c3ccc(Br)cc3)=C(O)C(=O)N2c2cccc(C(F)(F)F)c2)cc1OC (stereo unspecified) | 47 | 26 | – | – | –
